# Measured values reported in publication PMC6968633, “Synthesis, antibacterial and anticancer activity, and docking study of aminoguanidines containing an alkynyl moiety” (Journal of Enzyme Inhibition and Medicinal Chemistry, 2019).
# Assays:
# [1] = system: Staphyiococcus aureus CMCC 25923; test: Antibacterial MIC, serial dilution; assay type: cell-based, Staphylococcus aureus; settings: Staphylococcus aureus, CMCC25923; S. aureus CMCC 25923, 24 h, 37 °C; read-out: MIC
# Description: (§1) Test bacteria were grown to mid-log phase in Mueller–Hinton broth (MHB) or Tryptone Soya Broth (TSB) and diluted 1000-fold in the same medium. Bacteria (10^5 CFU/mL) were inoculated into MHB or TSB and dispensed at 0.2 ml/well into a 96-well microtiter plate. As positive controls, gatifloxacin, moxifloxacin, norfloxacin, oxacillin, and penicillin were used. […] Bacterial growth was determined by measuring the absorption at 630 nm using a microplate reader. All experiments were carried out three times.
# (§2) The evaluation of antibacterial activity of all compounds (3a–3j and 6a–6k) was performed by a serial dilution method to determine the MIC against a panel of pathogens comprising five Gram-positive strains (S. aureus (CMCC(B) 26003 and CMCC 25923), Streptococcus mutans BNCC 336931, Enterococcus faecalis CMCC 29212, and Bacillus subtilis CMCC 63501), four Gram-negative strains (E. coli (CMCC 25922 and CMCC 44568) and P. aeruginosa (CMCC 27853 and CMCC 10104)), as well as three methicillin-resistant clinical isolates (S. aureus ATCC 43300 and ATCC 33591, P. aeruginosa ATCC BAA-2111). The results are described in Tables 1 and 2. Gatifloxacin, moxifloxacin, norfloxacin, oxacillin, and penicillin were used as positive controls.
# [2] = system: Bacillus subtilis CMCC 63501; test: Antibacterial MIC, serial dilution; assay type: cell-based; settings: Bacillus subtilis, CMCC63501; B. subtilis CMCC 63501, 24 h, 37 °C; read-out: MIC
# Description: as §1, §2
# [3] = system: Enterococcus faecalis CMCC 29212; test: Antibacterial MIC, serial dilution; assay type: cell-based; settings: Enterococcus faecalis, CMCC29212; E. faecalis CMCC 29212, 24 h, 37 °C; read-out: MIC
# Description: as §1, §2
# [4] = system: Escherichia coli CMCC 25922; test: Antibacterial MIC, serial dilution; assay type: cell-based; settings: Escherichia coli, CMCC25922; E. coli CMCC 25922, 24 h, 37 °C; read-out: MIC
# Description: as §1, §2
# [5] = system: Escherichia coli CMCC 44568; test: Antibacterial MIC, serial dilution; assay type: cell-based; settings: Escherichia coli, CMCC44568; E. coli CMCC 44568, 24 h, 37 °C; read-out: MIC
# Description: as §1, §2
# [6] = system: Pseudomonas aeruginosa CMCC 10104; test: Antibacterial MIC, serial dilution; assay type: cell-based; settings: Pseudomonas aeruginosa, CMCC10104; P. aeruginosa CMCC 10104, 24 h, 37 °C; read-out: MIC
# Description: as §1, §2
# [7] = system: Pseudomonas aeruginosa CMCC 27853; test: Antibacterial MIC, serial dilution; assay type: cell-based; settings: Pseudomonas aeruginosa, CMCC27853; P. aeruginosa CMCC 27853, 24 h, 37 °C; read-out: MIC
# Description: as §1, §2
# [8] = system: Staphylococcus aureus CMCC(B)26003; test: Antibacterial MIC, serial dilution; assay type: cell-based; settings: Staphylococcus aureus; S. aureus CMCC(B)26003, 24 h, 37 °C; read-out: MIC
# Description: as §1, §2
# [9] = system: Streptococcus mutans BNCC 336931; test: Antibacterial MIC, serial dilution; assay type: cell-based; settings: Streptococcus mutans, BNCC336931; S. mutans BNCC 336931, 24 h, 37 °C; read-out: MIC
# Description: as §1, §2
# [10] = system: Staphylococcus aureus ATCC 33591; test: Antibacterial MIC, multidrug-resistant clinical isolate; assay type: cell-based; settings: Staphylococcus aureus, ATCC33591; multidrug-resistant S. aureus ATCC 33591; read-out: MIC
# Description: as §1, §2
# [11] = system: Staphylococcus aureus ATCC 43300; test: as above; assay type: cell-based; settings: Staphylococcus aureus, ATCC43300; multidrug-resistant S. aureus ATCC 43300; read-out: MIC
# Description: as §1, §2
# [12] = system: A549; test: Cytotoxicity, CCK-8 assay; assay type: cell-based; settings: Homo sapiens, A549 lung cancer cells, 48 h
# Description: (§3) A lung cancer cell line (A549), gastric cancer cell line (SGC7901) and human hepatocytes (L02) were used to test the anticancer activity and cytotoxicity of the new compounds. 5-Fluorouracil (5-FU) was used as the positive control against cancer cell lines. The A549, SGC7901 and L02 cells were grown in Dulbecco’s modified Eagle’s medium (DMEM) supplemented with 10% foetal bovine serum (FBS) and antibiotics (100 U/mL penicillin-streptomycin). Cells at 80–90% confluence were split by trypsin (0.25% in PBS; pH 7.4), and the medium was changed at 24 h intervals. The cells were cultured at 37 °C in a 5% CO2 incubator. The cells were passaged three times, then approximately 1 × 10^4 cells were seeded into each well of a 96-well plate and allowed to incubate to allow attachment of the cells to the surface. After 24 h, the medium was replaced with DMEM supplemented with 10% FBS containing various concentrations (0.1, 0.3, 1, 3, 10, and 30 μg/mL) of test compounds. Each concentration was tested in triplicate. After 48 h treatment, 20 µL of CCK-8 solution was added to each well and the optical density measured at 450 nm after 3 h using a microplate reader. The IC50 values were defined as the concentrations inhibiting 50% of cell growth.
# [13] = system: SGC7901; test: Cytotoxicity, CCK-8 assay; assay type: cell-based; settings: Homo sapiens, SGC-7901, SGC7901 gastric cancer cells, 48 h
# Description: as §3
# [14] = system: L02; test: Cytotoxicity, CCK-8 assay, normal cell line; assay type: cell-based; settings: L02 normal human hepatocytes, 48 h
# Description: as §3
# [15] = system: Pseudomonas aeruginosa ATCC BAA-2111; test: Antibacterial MIC, multidrug-resistant clinical isolate; assay type: cell-based; settings: ATCCBAA2111, multidrug-resistant P. aeruginosa ATCC BAA-2111
# Description: as §1, §2
Compound,MIC [1] [µg/mL],MIC [2] [µg/mL],MIC [3] [µg/mL],MIC [4] [µg/mL],MIC [5] [µg/mL],MIC [6] [µg/mL],MIC [7] [µg/mL],MIC [8] [µg/mL],MIC [9] [µg/mL],MIC [10] [µg/mL],MIC [11] [µg/mL],IC50 [12] [µg/mL],IC50 [13] [µg/mL],IC50 [14] [µg/mL],melting point [°C],MIC [15] [µg/mL]
"N=C(N)NN=Cc1ccc(C#Cc2ccccc2Cl)cc1 [Compound 3e, 2-(4-((2-Chlorophenyl)ethynyl)benzylidene)hydrazine-1-carboximidamide]",2,1,0.5,2,8,4,> 128,0.5,2,0.5,2,4.57,0.45,12.4,200 to 203,
"N=C(N)NN=Cc1ccc(C#Cc2cccc(Cl)c2)cc1 [Compound 3f, 2-(4-((3-Chlorophenyl)ethynyl)benzylidene)hydrazine-1-carboximidamide]",1,0.5,0.5,2,4,2,> 128,1,2,,,2.55,0.3,10.2,213 to 214,
"N=C(N)NN=Cc1ccc(C#Cc2cccc(Br)c2)cc1 [Compound 3i, 2-(4-((3-Bromophenyl)ethynyl)benzylidene)hydrazine-1-carboximidamide]",2,1,1,2,2,2,> 128,1,1,0.5,2,4.03,1.26,19.6,223 to 225,
"N=C(N)NN=Cc1ccc(C#CC#Cc2ccccc2)cc1 [Compound 6a, 2-(4-(Phenylbuta-1,3-diyn-1-yl)benzylidene)hydrazine-1-carboximidamide]",> 128,0.5,0.5,128,128,1,> 128,0.5,0.5,0.5,4,2.49,1.63,13.4,209 to 212,> 64
"N=C(N)NN=Cc1ccc(C#CC#Cc2ccccc2F)cc1 [Compound 6b, 2-(4-((2-Fluorophenyl)buta-1,3-diyn-1-yl)benzylidene)hydrazine-1-carboximidamide]",1,4,0.5,8,128,128,> 128,0.25,0.5,1,8,2.22,1.37,18,218 to 220,
